Measured values: PMC12663137 (Nature Communications, 2025)
Values joined by “and” are separate entries in the source; they are usually repeats but may differ in a detail not shown here. Equal entries are not always repeated.

Assays:
[1] = biological target: T1, SV2AEM (Homo sapiens, UniProt Q7L0J3); assay: Association kinetics of 3H-UCB-J after pre-incubation with UCB1244283 (Fig. 4F); format: binding
T1 construct: expressed in transfected cells; host or cells: HEK293 (ATCC CRL-1573), crude membranes (transient transfection or baculovirus)
Method: Ligand binding studies were carried out using crude membranes prepared from HEK293 cells (ATCC, CRL-1573) overexpressing mVenus-SV2AWT or SV2AEM. Membranes were prepared either from transiently transfected cells or from baculovirus-infected cells as described previously. Cells were washed with DPBS (Ca^2+ and Mg^2+ free), followed by resuspending in cold SH buffer (10 mM HEPES-Tris pH 7.4, 320 mM sucrose) containing protease inhibitor cocktail (MedChemExpress) to a density of 10^7 cells/ml. This cell suspension was homogenized by passing through a bead homogenizer (Isobiotec) with 10-micron clearance bead on ice. The lysate was then centrifuged at 4000 × g for 5 min at 4 °C, and the supernatant was aliquoted, frozen in liquid nitrogen, and stored at −80 °C. The mVenus fluorescence estimated using fluorescence size-exclusion chromatography (FSEC) was used to normalize expression levels of mVenus-SV2A mutants studied as detailed previously. For all binding studies, membranes containing […] protein (estimated by BCA method) per reaction were used.
Residual radioligand binding observed in presence of 10 µM of ^1H-UCB-J was considered as background binding.

[2] = system: tonic and clonic convulsions; design: method as in Daniels et al., Br J Pharmacol. 2013; details: UCB1244283 alone; ref Daniels et al., Br J Pharmacol. 2013; cited from earlier work

T1 sequence (Q7L0J3 141-742): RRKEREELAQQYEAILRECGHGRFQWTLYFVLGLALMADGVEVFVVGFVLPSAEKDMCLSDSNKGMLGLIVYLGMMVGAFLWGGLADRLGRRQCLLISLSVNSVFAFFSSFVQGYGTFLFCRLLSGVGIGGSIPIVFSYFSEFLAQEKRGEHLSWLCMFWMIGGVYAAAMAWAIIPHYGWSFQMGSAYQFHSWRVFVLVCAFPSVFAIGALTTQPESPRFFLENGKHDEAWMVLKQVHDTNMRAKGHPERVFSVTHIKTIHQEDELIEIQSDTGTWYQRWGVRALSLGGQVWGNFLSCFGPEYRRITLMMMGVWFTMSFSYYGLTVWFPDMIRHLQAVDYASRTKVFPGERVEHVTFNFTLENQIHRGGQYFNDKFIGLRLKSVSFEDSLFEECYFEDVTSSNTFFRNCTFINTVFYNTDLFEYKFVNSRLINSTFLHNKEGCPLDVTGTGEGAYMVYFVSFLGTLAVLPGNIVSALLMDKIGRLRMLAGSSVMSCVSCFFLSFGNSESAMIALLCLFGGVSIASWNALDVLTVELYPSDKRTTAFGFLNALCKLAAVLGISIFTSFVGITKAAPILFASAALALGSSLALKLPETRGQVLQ

- 3H-UCB-J Binding (%) ([1]; pre-incubate 10 μM UCB1244283, 0 min): 0.02% and 0.00168%
- 3H-UCB-J Binding (%) ([1]; pre-incubate 10 μM UCB1244283, 0.5 min): 0.16% and 0.14%
- 3H-UCB-J Binding (%) ([1]; pre-incubate 10 μM UCB1244283, 1 min): 0.20% and 0.18%
- 3H-UCB-J Binding (%) ([1]; pre-incubate 10 μM UCB1244283, 1.5 min): 0.16% and 0.22%
- 3H-UCB-J Binding (%) ([1]; pre-incubate 10 μM UCB1244283, 2 min): 0.23% and 0.25%
- 3H-UCB-J Binding (%) ([1]; pre-incubate 10 μM UCB1244283, 2.5 min): 0.16% and 0.30%
- 3H-UCB-J Binding (%) ([1]; pre-incubate 10 μM UCB1244283, 3 min): 0.29% and 0.33%
- 3H-UCB-J Binding (%) ([1]; pre-incubate 10 μM UCB1244283, 3.5 min): 0.30% and 0.35%
- 3H-UCB-J Binding (%) ([1]; pre-incubate 10 μM UCB1244283, 4 min): 0.29% and 0.36%
- 3H-UCB-J Binding (%) ([1]; pre-incubate 10 μM UCB1244283, 4.5 min): 0.41% and 0.37%
- 3H-UCB-J Binding (%) ([1]; pre-incubate 10 μM UCB1244283, 5 min): 0.39%
- 3H-UCB-J Binding (%) ([1]; pre-incubate 30 μM UCB1244283, 0 min): 0.00112% and 0.00142%
- 3H-UCB-J Binding (%) ([1]; pre-incubate 30 μM UCB1244283, 0.5 min): 0.10%
- 3H-UCB-J Binding (%) ([1]; pre-incubate 30 μM UCB1244283, 1 min): 0.11%
- 3H-UCB-J Binding (%) ([1]; pre-incubate 30 μM UCB1244283, 1.5 min): 0.13% and 0.12%
- 3H-UCB-J Binding (%) ([1]; pre-incubate 30 μM UCB1244283, 2 min): 0.14%
- 3H-UCB-J Binding (%) ([1]; pre-incubate 30 μM UCB1244283, 2.5 min): 0.14% and 0.15%
- 3H-UCB-J Binding (%) ([1]; pre-incubate 30 μM UCB1244283, 3 min): 0.15%
- 3H-UCB-J Binding (%) ([1]; pre-incubate 30 μM UCB1244283, 3.5 min): 0.14% and 0.15%
- 3H-UCB-J Binding (%) ([1]; pre-incubate 30 μM UCB1244283, 4 min): 0.16%
- 3H-UCB-J Binding (%) ([1]; pre-incubate 30 μM UCB1244283, 4.5 min): 0.22% and 0.16%
- 3H-UCB-J Binding (%) ([1]; pre-incubate 30 μM UCB1244283, 5 min): 0.23% and 0.19%
Structure (SMILES): COc1ccccc1NC(=O)CC(C)Cc1cc(C)cc(C)c1 (centres unmarked) [UCB1244283]
- effect against convulsions [2]: clear protective effect against tonic and clonic convulsions
